Measurements taken from patent US9464113B2, “Anti-heparan sulfate peptides that block herpes simplex virus infection in vivo” (The Board of Trustees of the University of Illinois, priority 2010, dated 2016).
No end group written: not given here.

Columns and labels:
[1] = tested on: HSV-1 (KOS) gL86; experiment: HSV-1 entry into primary human corneal fibroblasts (CF); type: cell-based, herpes simplex virus type-1; settings: for blocking of HSV-1 entry/infection: human CF, 60 min pre-treatment, 25 pfu/cell, 6 hr
Description: (§1) HSV-1 entry was assayed as described in Shukla et al., Cell 99:13-22 (1999). CHO-K1 cells were grown in 6-well plates to subconfluence and then transfected with 2.5 μg of expression plasmids for gD receptors nectin-1 (pBG38), HVEM (pBec10), 3-OST-3 isoform (pDS43), or pCDNA3.1 (empty vector) using LipofectAMINE (Gibco/BRL). At 16 h post-transfection, the cells were replated into 96-well dishes for pre-incubation with peptides at different concentrations for 60 min at room temperature. In parallel, natural target cells (HeLa, CF, and RPE) were also pre-treated with the peptides for the same duration. In all cases, unbound peptides were removed after washing 3× with PBS. Thereafter, cells were infected for 6 h with a recombinant virus, HSV-1 (KOS) gL86, at multiple plaque forming units (PFUs) and β-galactosidase assays were performed using either a soluble substrate o-nitrophenyl-β-D-galactopyranoside (ONPG at 3.0 mg/ml; ImmunoPure, Pierce) or X-gal (Sigma). For the soluble substrate, the enzymatic activity was measured at 410 nm using a micro-plate reader (Spectra Max 190, Molecular Devices, Sunnyvale, Calif.). For the X-gal assay, cells were fixed (2% formaldehyde and 0.2% glutaraldehyde) and permeabilized (2 mM MgCl2, 0.01% deoxycholate, and 0.02% nonidet NP-40 (Sigma)). 1 ml of β-galactosidase reagent (1.0 mg/ml X-gal in ferricyanide buffer) was added to each well and incubated at 37° C. for 90 min before the cells were examined using bright field microscopy under the 20× objectives of the inverted microscope (Zeiss Axiovert 100 M).
(§2) The ability of the G1 and G2 peptides to block HSV-1 entry into natural target cells (HeLa and primary cultures of human CF) was compared. A similar dosage response curve was generated when HeLa (FIG. 2A) or CF (FIG. 2B) were pre-treated with G1 or G2 peptides during HSV-1 entry. […] HeLa cells (FIG. 2A) and primary cultures of human corneal fibroblasts (CF) (FIG. 2B) were tested. Cells in 96-well plates were pre-treated for 60 min with indicated mM concentrations of G1, G2, or Cp peptides. Mock-treated cells (abbreviated as C) served as a control. Pretreated cells were infected with a β galactosidase-expressing recombinant virus HSV-1 (KOS) HSV-1 gL86 (25 pfu/cell) for 6 hr. Viral entry was quantitated as described above in reference to FIG. 1. Confirmation of HSV-1 entry blocking activity of G1, G2, and control (Cp) peptides on a per cell basis was obtained after cells were infected as described above followed by X-gal (1.0 mg/ml) staining (Right panels), which yields an insoluble blue product upon hydrolysis by β-galactosidase expressed from the input viral genomes. […] Microscopy was performed using a 20× objective of Zeiss Axiovert 100.
To better understand the inhibitory potential of G1 and G2 peptides, synthetic short variants (10-mer) were synthesized that lacked the terminal non-positively charged amino acids. In case of G1, N-terminus L and C-terminus H residues were removed. For G2, the N-terminus flanking residues (M and P) were removed. Without being bound by theory, it is believed that 12-mer peptides are too short to adopt substantial secondary or tertiary structures and that the primary structure of those peptides, which includes a defined sequence or groupings of positively charged residues, plays a critical role in mediating inhibition of HSV-1 entry. Synthetic 10-mer versions of G1 and G2 (shown above) were tested for blocking HSV-1(KOS)gL86 entry into cultured CF. After 6 h, the viral entry was measured by ONPG assay as described in FIG. 1.
Alanine (A) scanning mutagenesis was performed to identify specific amino acid residues responsible for each peptide's function, stability, and conformation. O'Nuallain et al., Biochemistry 46:13049-13058 (2007). Twelve synthetic peptides were made whereby each residue of G2 was sequentially replaced with an alanine residue and corresponding changes in the G2 peptide were evaluated for their ability to affect viral entry (FIG. 4B). […]

[2] = tested on: HSV-1 (KOS) gL86; experiment: HSV-1 entry into HeLa cells (ONPG and X-gal); type: cell-based, herpes simplex virus type-1; settings: for blocking of HSV-1 entry/infection: HeLa cells, 60 min pre-treatment, 25 pfu/cell, 6 hr
Description: as §1, §2

Sequence	blocking of HSV-1 entry/infection [1]	blocking of HSV-1 entry/infection [2]	activity normalized against wild-type G2 (higher than 1 = loss of activity) ([1]; alanine scanning, FIG. 4B)	effectiveness in blocking entry compared with G1 ([2]; in virtually all cases (FIGS. 1 and 2))
RVCGSIGKEVLG [Cp, reference compound]	no effect on HSV-1 entry	no effect on HSV-1 entry	–	–
MPRRRRIRRRQK [G2, MPRRRRIRRRQK]	effective in blocking infection of individual cells	effective in blocking infection of individual cells	1.00	slightly more effective in blocking entry than G1
LRSRTKIIRIRH [G1, LRSRTKIIRIRH]	effective in blocking infection of individual cells	effective in blocking infection of individual cells	–	–
